Counter-ions that a name gives are not always drawn.
Tests used:
[1] = tested on: two key underarm bacteria strains; assay: Raw material microbial inhibition, verbal summary for both strains; type: cell-based, C. mucofaciens and S. epidermidis; conditions: verbal summary of Table 2, both strains
Source text: The data in Table 1 above was generated with the following test method.
It is understood that when not specifically noted in this procedure: • a) All materials, reagents and equipment required for this procedure are of appropriate design and condition of cleanliness and/or sterility as determined by their intended use. • b) The operator has been trained in aseptic technique and has been qualified to perform the procedure and accurately interpret the results. • c) All media required for this procedure was manufactured by a reputable commercial source eg. […] Procedure: (all Procedures Performed in Anaerobic Chamber Except where Noted) 1. […] 2. […] Microbial Strains • Staphylococcus epidermidis (clinical isolate) • Corynebacterium mucofaciens (clinical isolate) 4. Test Procedure Inoculum Preparation • Prior to testing streak organisms for isolation on BHI with 1% Tween 80 plates, wrap with parafilm and place in 37° C. incubator. When isolated colonies appear remove one representative colony from each plate and place each in 5 ml of BHI with 1% Tween 80 media. Incubate at 37° C. with shaking overnight. Inoculate 20 ml BHI with 1% Tween 80 (per 96 deep well plate to be tested) with 20 ul of the overnight culture (1-1000 dilution). Master Plate Preparation • Compounds/formulations to be tested are diluted across a 96 deep well plate as shown below (for a 1% stock solution). […] 800 ul each 1% stock solution+positive control are added to wells C1 through H1. […] 400 ul is then removed from #1 well added to the #2 well and mixed. This is then continued across the plate resulting in a 50% dilution between wells across the plate (this can be easily accomplished with an automatic 8 channel Matrix pipette set to withdraw, dispense and mix).
(§1) In row A of a 96 deep well plate pipette 180 ul of sterile BHI with 1% Tween 80 as a negative growth control. All other wells receive 180 ul of inoculum. From the master plate introduce 20 ul to the corresponding row in the test plate using an 8-channel pipette. Loaded plates are placed on a plate shaker in the 37° C. incubator and incubated overnight. The next day read the O.D. 600 on a plate reader. The MIC is the last well from the right that has no bacterial growth.

S. epidermidis = assay: Tier 1 Anaerobic MIC Assay; type: cell-based, Staphylococcus epidermidis (clinical isolate); conditions: raw material, BHI with 1% Tween 80, 37° C. overnight
Source text: (§2) 1. Tier 1 Anaerobic MIC Assay
(§3) The data in Table 1 above was generated with the following test method. The purpose of this assay is to determine if a compound or formulation has an antimicrobial effect in vitro.
(§4) It is understood that when not specifically noted in this procedure: • a) All materials, reagents and equipment required for this procedure are of appropriate design and condition of cleanliness and/or sterility as determined by their intended use. • b) The operator has been trained in aseptic technique and has been qualified to perform the procedure and accurately interpret the results. • c) All media required for this procedure was manufactured by a reputable commercial source eg. Difco, Merck etc. and has been stored and prepared as per manufacturer's instructions. • d) All routine laboratory controls, including but not limited to, media function and growth promotion tests, verification of sterility and use of positive and negative controls are being conducted. Procedure: (all Procedures Performed in Anaerobic Chamber Except where Noted) 1. Apparatus • Incubator at 37° C.; 20-200 ul 12 channel pipette; 5-50 ul 12 channel pipette; 1250 ul 8 channel Thermo Scientific Matrix pipette; 96 well plate shaker (located in incubator); Beckman Coulter deep well cap mat #267005; Beckman Coulter deep 96 well plates #267007; Falcon 96 well tissue culture plates #353072; Vortexer; Culture tubes/caps Disposable sterile gloves; Sterile petri dishes; Standard microbiological lab equipment (sterile pipettes, syringes, tips, loops, etc.); Glass bottles/flasks for media; Autoclave; Parafilm; Spectrophotometer. 2. Media • 0.9% or 0.85% saline solution • BHI agar supplemented with 1% Tween 80 • BHI media supplemented with 1% Tween 80 3. Microbial Strains • Staphylococcus epidermidis (clinical isolate) • Corynebacterium mucofaciens (clinical isolate) 4. Test Procedure Inoculum Preparation • Prior to testing streak organisms for isolation on BHI with 1% Tween 80 plates, wrap with parafilm and place in 37° C. incubator. When isolated colonies appear remove one representative colony from each plate and place each in 5 ml of BHI with 1% Tween 80 media. Incubate at 37° C. with shaking overnight. Inoculate 20 ml BHI with 1% Tween 80 (per 96 deep well plate to be tested) with 20 ul of the overnight culture (1-1000 dilution). Master Plate Preparation • Compounds/formulations to be tested are diluted across a 96 deep well plate as shown below (for a 1% stock solution). 800 ul of 0.85% saline is added to wells A1 and B1 (as these will be the negative and positive control respectively). 800 ul each 1% stock solution+positive control are added to wells C1 through H1. 400 ul 0.85% saline are added to all other wells. 400 ul is then removed from #1 well added to the #2 well and mixed. This is then continued across the plate resulting in a 50% dilution between wells across the plate (this can be easily accomplished with an automatic 8 channel Matrix pipette set to withdraw, dispense and mix).
as §1

C. mucofaciens = assay: Tier 1 Anaerobic MIC Assay; type: cell-based, Corynebacterium mucofaciens (clinical isolate); conditions: raw material, BHI with 1% Tween 80, 37° C. overnight
Source text: as §2, §3, §4, §1

[2] = iron binding affinity; NIST Standard Reference Database 46; cited from earlier work
[3] = intrinsic water solubility independent of pH

| SMILES | performance against the bacteria as raw materials [1] | microbial inhibition concentration (MIC), S. epidermidis (S. epidermidis) [ppm] | microbial inhibition concentration (MIC), C. mucofaciens (C. mucofaciens) [ppm] | Log K1 [2] | further results |
| --- | --- | --- | --- | --- | --- |
| O=C([O-])[O-].[Ca+2] [Ca Carbonate, calcium carbonate] | performing moderately well | >2500 | >2500 |  |  |
| [Ca+2].[Cl-].[Cl-] [CaCl] |  | >50000 | >50000 |  |  |
| CC(C)=CCCC(C)=CC=O [Citral] | performing well |  |  |  |  |
| O=C(O)CC(O)(CC(=O)O)C(=O)O [Citric Acid] |  |  |  | 11 |  |
| CC(=O)N(O)CCCCCNC(=O)CCC(=O)N(O)CCCCCNC(=O)CCC(=O)N(O)CCCCCN [Desferrioxamine] |  |  |  | 31 |  |
| O=C(O)CN(CCN(CC(=O)O)CC(=O)O)CCN(CC(=O)O)CC(=O)O [Diethylenetriaminepentaacetic acid] |  |  |  | 28 |  |
| O=P(O)(O)CN(CCN(CP(=O)(O)O)CP(=O)(O)O)CCN(CP(=O)(O)O)CP(=O)(O)O [Diethylenetriaminepentakis(methylenephosphonic acid)] |  |  |  | 23 |  |
| COC(=O)CCC(=O)OC [Dimethyl Succinate] | performing well |  |  |  |  |
| CCCCC(CC)COCC(O)CO (stereo not shown) [Ethylhexyl glycerin] |  | 12500 | 12500 |  |  |
| C=CCc1ccc(O)c(OC)c1 [Eugenol] | performing well |  |  |  |  |
| CCCCCCCCC(CO)CCCCCC (stereo not shown) [Hexyl Decanol] |  | 3031 | 6062 |  |  |
| CC(C(=O)O)N(CC(=O)O)CC(=O)O (stereo not shown) [Methylglycine diacetic acid (MGDA), Methylglycine diacetic acid] |  |  |  | 16 |  |
| [Cl-].[Na+] [NaCl] |  | >25000 | >25000 |  |  |
| Cc1cc(CC(C)CC(C)(C)C)n(O)c(=O)c1.NCCO (stereo not shown) [Piroctone olamine, 1-Hydroxy-4-methyl-6-(2,4,4-trimethylpentyl)-2-pyridone monoethanolamine salt] | perform particularly well |  |  |  | LogWSo [3]: −3.22 |
| C=CCCCCCCCCC(=O)N[C@@H](Cc1ccccc1)C(=O)O [Sepiwhite] | performing well | 1000 | 2000 |  |  |
| CCOC(=O)CC(O)(CC(=O)OCC)C(=O)OCC [Triethyl citrate] | performing well |  |  |  |  |

— patent US12036301B2, “Deodorant and antiperspirant compositions” (The Procter & Gamble Company, priority 2017, dated 2024)
